Results on 20 compounds are retold here after US8940897B2, “1,3,4-oxadiazole and 1,3,4-thiadiazole β-lactamase inhibitors” (priority 2012, dated 2015).

Structures can show the parent of a compound that is named as a salt.

For this assay, the system named is bacterial strains that express the class D cephalosporinase OXA-15. The experiment in a line: Synergy MIC / standard BLI potentiation MIC assay, strains expressing OXA-15.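 Also: more active means a lower MIC or sMIC than Avibactam.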 The class given is cell-based, E. coli. As to conditions: in the presence of a β-lactam; comparator Avibactam (CCC). On the procedure: Unless otherwise indicated, the activity of the BLI compounds can be described by the MIC value obtained from a Synergy MIC assay or a BLI potentiation assay (e.g as described herein), both of which are run in the presence of a β-lactam.
The experimental protocol was performed according to Clinical and Laboratory Standards Institute (CLSI) guidelines with modifications as described below (CLSI guidelines can be derived from the CLSI document M07-A9 published in January 2012: “Methods for Dilution Antimicrobial Susceptibility Tests for Bacteria That Grow Aerobically; Approved Standard-Ninth Edition”).
To prepare for MIC testing, frozen glycerol stocks of clinical isolates (Klebsiella pneumoniae, Eschericia coli, Enterobacter spp, Citrobacter spp, or Pseudomonas aeruginosa) were used to streak for isolated colonies on rich, non-selective, tryptic soy agar containing 5% sheep's blood (TSAB). Frozen glycerol stocks of laboratory engineered, isogenic E. coli strains, which contain cloned β-lactamase expressing plasmids were used to streak for isolated colonies on rich, selective LB agar supplemented with 25 μg/mL tetracycline to maintain the plasmid. All strains were incubated at 37° C. for 18-24 hrs.
On the day of testing, primary cultures were started by scraping off 5-10 colonies from the TSAB plates containing clinical strains or the tetracycline supplemented LB plates containing engineered strains. The clinical strain material was suspended in ˜5 mL of cation adjusted Mueller Hinton Broth (CAMHB) in 14 mL culture tubes. The engineered strain material was suspended in CAMHB (supplemented with 25 μg/mL tetracycline) in 14 mL culture tubes. All strains were incubated at 37° C. with aeration (200 rpm) for ˜2 hrs until the optical density at 600 nm (OD600) was ≧0.1.
The two compound components of the assay were each diluted in CAMHB and added to the 96-well broth microdilution assay plates. 50 μL of the β-lactam was added to each well of the assay plate in 2-fold dilutions with final concentrations ranging from 128 to 0.13 μg/mL. 25 μL of the BLI compound was added to all wells in the broth microdilution plates at a final concentration of 4 μg/mL. Inoculum cultures were prepared by standardizing the primary cultures to OD600=0.1 and then adding 20 μL of the adjusted primary culture per 1 mL CAMHB for clinical strains or CAMHB (supplemented with tetracycline at 100 μg/mL) for engineered strains, so that the final inoculum density was ˜10^5 colony forming units per milliliter. Diluted inoculum cultures were used to inoculate 25 μl, per well in 96-well broth microdilution assay plates. The final volume of each well was 100 μL and contained a β-lactam at different concentrations, a BLIcompound at 4 μg/mL concentration, the bacterial culture at an OD600 of approximately 0.001 and when necessary tetracycline at 25 μg/mL.
Plates were incubated for 18-20 hours at 37° C. with aeration (200 rpm). Following incubation, growth was confirmed visually placing plates over a viewing apparatus (stand with a mirror underneath) and then OD600 was measured using a SpectraMax 340PC384 plate reader (Molecular Devices, Sunnyvale, Calif.). Growth was defined as turbidity that could be detected with the naked eye or achieving minimum OD600 of 0.1. MIC values were defined as the lowest concentration producing no visible turbidity.
The synergy MIC (sMIC) assay determines the concentration of the BLI required to potentiate the activity of a fixed concentration of a β-lactam antibiotic against β-lactamase producing bacterial strains. The experimental protocol was performed according to Clinical and Laboratory Standards Institute (CLSI) guidelines with modifications as described below (CLSI guidelines can be derived from the CLSI document M07-A9 published in January 2012: “Methods for Dilution Antimicrobial Susceptibility Tests for Bacteria That Grow Aerobically; Approved Standard-Ninth Edition”). […]

Regarding `N=C(N)NCc1nnc([C@@H]2CC[C@@H]3CN2C(=O)N3OS(=O)(=O)O)o1` [Compound 704, (2S,5R)-2-(5-(guanidinomethyl)-1,3,4-oxadiazol-2-yl)-7-oxo-1,6-diazabicyclo[3.2.1]octan-6-yl hydrogen sulfate], the “activity against bacterial strains that express OXA-15 β-lactamase compared with Avibactam” value (shortened to “activity … compared with Avibactam”) was “more active than Avibactam”.

For `Nc1nnc([C@@H]2CC[C@@H]3CN2C(=O)N3OS(=O)(=O)O)o1` [Compound 707, (2S,5R)-2-(5-amino-1,3,4-oxadiazol-2-yl)-7-oxo-1,6-diazabicyclo[3.2.1]octan-6-yl hydrogen sulfate], the “activity … compared with Avibactam” value is on record as “more active than Avibactam”.

In the case of `N=C(N)N1CCC(c2nnc([C@@H]3CC[C@@H]4CN3C(=O)N4OS(=O)(=O)O)o2)CC1` [Compound 712, (2S,5R)-2-(5-(1-carbamimidoylpiperidin-4-yl)-1,3,4-oxadiazol-2-yl)-7-oxo-1,6-diazabicyclo[3.2.1]octan-6-yl hydrogen sulfate], the “activity … compared with Avibactam” value is given as “more active than Avibactam”.

As for `O=C1N2C[C@@H](CC[C@H]2c2nnc(N3CCNCC3)o2)N1OS(=O)(=O)O` [Compound 713, (2S,5R)-7-oxo-2-(5-(piperazin-1-yl)-1,3,4-oxadiazol-2-yl)-1,6-diazabicyclo[3.2.1]octan-6-yl hydrogen sulfate], the “activity … compared with Avibactam” value is on record as “more active than Avibactam”.

Take `N=C(N)NCCCc1nnc([C@@H]2CC[C@@H]3CN2C(=O)N3OS(=O)(=O)O)o1` [Compound 714, (2S,5R)-2-(5-(3-guanidinopropyl)-1,3,4-oxadiazol-2-yl)-7-oxo-1,6-diazabicyclo[3.2.1]octan-6-yl hydrogen sulfate]: the “activity … compared with Avibactam” value is reported as “more active than Avibactam”.

As to `NCC(O)c1nnc([C@@H]2CC[C@@H]3CN2C(=O)N3OS(=O)(=O)O)o1` (stereo partly drawn) [Compound 715, (2S,5R)-2-(5-(2-amino-1-hydroxyethyl)-1,3,4-oxadiazol-2-yl)-7-oxo-1,6-diazabicyclo[3.2.1]octan-6-yl hydrogen sulfate], the “activity … compared with Avibactam” value is “more active than Avibactam”.

In the case of `NCCNCCc1nnc([C@@H]2CC[C@@H]3CN2C(=O)N3OS(=O)(=O)O)o1` [Compound 716, (2S,5R)-2-(5-(2-((2-aminoethyl)amino)ethyl)-1,3,4-oxadiazol-2-yl)-7-oxo-1,6-diazabicyclo[3.2.1]octan-6-yl hydrogen sulfate], the “activity … compared with Avibactam” value is on record as “more active than Avibactam”.

For the compound `NCC(N)c1nnc([C@@H]2CC[C@@H]3CN2C(=O)N3OS(=O)(=O)O)o1` (stereo partly drawn) [Compound 717, (2S,5R)-2-(5-(1,2-diaminoethyl)-1,3,4-oxadiazol-2-yl)-7-oxo-1,6-diazabicyclo[3.2.1]octan-6-yl hydrogen sulfate], the “activity … compared with Avibactam” value is “more active than Avibactam”.

Turning to `O=C1N2C[C@@H](CC[C@H]2c2nnc(C3CCNCC3)s2)N1OS(=O)(=O)O` [Compound 719, (2S,5R)-7-oxo-2-(5-(piperidin-4-yl)-1,3,4-thiadiazol-2-yl)-1,6-diazabicyclo[3.2.1]octan-6-yl hydrogen sulfate], the “activity … compared with Avibactam” value is on record as “more active than Avibactam”.

Consider `O=C1N2C[C@@H](CC[C@H]2c2nnc(CC3CNC3)o2)N1OS(=O)(=O)O` [Compound 725, (2S,5R)-2-(5-(azetidin-3-ylmethyl)-1,3,4-oxadiazol-2-yl)-7-oxo-1,6-diazabicyclo[3.2.1]octan-6-yl hydrogen sulfate], for which the “activity … compared with Avibactam” value is on record as “more active than Avibactam”.

Take `NCC(O)Cc1nnc([C@@H]2CC[C@@H]3CN2C(=O)N3OS(=O)(=O)O)o1` (stereo partly drawn) [Compound 733, (2S,5R)-2-(5-(3-amino-2-hydroxypropyl)-1,3,4-oxadiazol-2-yl)-7-oxo-1,6-diazabicyclo[3.2.1]octan-6-yl hydrogen sulfate]: the “activity … compared with Avibactam” value is recorded as “more active than Avibactam”.

With `N=C(N)N[C@H]1C[C@H](c2nnc([C@@H]3CC[C@@H]4CN3C(=O)N4OS(=O)(=O)O)o2)C1` [Compound 748, (2S,5R)-2-(5-((1r,3S)-3-guanidinocyclobutyl)-1,3,4-oxadiazol-2-yl)-7-oxo-1,6-diazabicyclo[3.2.1]octan-6-yl hydrogen sulfate], the “activity … compared with Avibactam” value is listed as “more active than Avibactam”.

In the case of `N[C@H]1C[C@H](NCc2nnc([C@@H]3CC[C@@H]4CN3C(=O)N4OS(=O)(=O)O)o2)C1` [Compound 757, (2S,5R)-2-(5-(((1r,3S)-3-aminocyclobutyl)amino)methyl)-1,3,4-oxadiazol-2-yl)-7-oxo-1,6-diazabicyclo[3.2.1]octan-6-yl hydrogen sulfate], the “activity … compared with Avibactam” value is given as “more active than Avibactam”.

For `O=C1N2C[C@@H](CC[C@H]2c2nnc(CNC3CCNCC3)o2)N1OS(=O)(=O)O` [Compound 769, (2S,5R)-7-oxo-2-(5-((piperidin-4-ylamino)methyl)-1,3,4-oxadiazol-2-yl)-1,6-diazabicyclo[3.2.1]octan-6-yl hydrogen sulfate], the “activity … compared with Avibactam” value is “more active than Avibactam”.

As for `NC1CCN(c2nnc([C@@H]3CC[C@@H]4CN3C(=O)N4OS(=O)(=O)O)o2)CC1` [Compound 773, (2S,5R)-2-(5-(4-aminopiperidin-1-yl)-1,3,4-oxadiazol-2-yl)-7-oxo-1,6-diazabicyclo[3.2.1]octan-6-yl hydrogen sulfate], the “activity … compared with Avibactam” value was “more active than Avibactam”.

Consider `O=C1N2C[C@@H](CC[C@H]2c2nnc([C@@H]3CNCCN3)o2)N1OS(=O)(=O)O` [Compound 778, (2S,5R)-7-oxo-2-(5-((S)-piperazin-2-yl)-1,3,4-oxadiazol-2-yl)-1,6-diazabicyclo[3.2.1]octan-6-yl hydrogen sulfate], for which the “activity … compared with Avibactam” value is reported as “more active than Avibactam”.

Turning to `N[C@H]1CC[C@@H](c2nnc([C@@H]3CC[C@@H]4CN3C(=O)N4OS(=O)(=O)O)o2)CC1` [Compound 780, (2S,5R)-2-(5-((1s,4R)-4-aminocyclohexyl)-1,3,4-oxadiazol-2-yl)-7-oxo-1,6-diazabicyclo[3.2.1]octan-6-yl hydrogen sulfate], the “activity … compared with Avibactam” value is “more active than Avibactam”.

For the compound `N[C@H]1CC[C@H](c2nnc([C@@H]3CC[C@@H]4CN3C(=O)N4OS(=O)(=O)O)o2)CC1` [Compound 781, (2S,5R)-2-(5-((1r,4S)-4-aminocyclohexyl)-1,3,4-oxadiazol-2-yl)-7-oxo-1,6-diazabicyclo[3.2.1]octan-6-yl hydrogen sulfate], the “activity … compared with Avibactam” value is “more active than Avibactam”.

`O=C1N2C[C@@H](CC[C@H]2c2nnc(CCCN3CCNCC3)o2)N1OS(=O)(=O)O` [Compound 792, (2S,5R)-7-oxo-2-(5-(3-(piperazin-1-yl)propyl)-1,3,4-oxadiazol-2-yl)-1,6-diazabicyclo[3.2.1]octan-6-yl hydrogen sulfate]: the “activity … compared with Avibactam” value was “more active than Avibactam”.

On to `O=C1N2C[C@@H](CC[C@H]2c2nnc(N3CCNCC3)s2)N1OS(=O)(=O)O` [Compound 797, (2S,5R)-7-oxo-2-(5-(piperazin-1-yl)-1,3,4-thiadiazol-2-yl)-1,6-diazabicyclo[3.2.1]octan-6-yl hydrogen sulfate], for which the “activity … compared with Avibactam” value is on record as “more active than Avibactam”.
